# Reference: patent US5523315A, “N-(hydroxyethyl)butanediamide derivatives” (Bio-Mega/Boehringer Ingelheim Research Inc., priority 1993, dated 1996)
# Target: T1, human renin (Homo sapiens, UniProt P00797)
# T1 construct: A human plasma pool is used as the source of both the substrate (angiotensinogen) and the enzyme (renin); from tissue; host or cells: pooled human plasma
# T1 sequence (P00797 67-406): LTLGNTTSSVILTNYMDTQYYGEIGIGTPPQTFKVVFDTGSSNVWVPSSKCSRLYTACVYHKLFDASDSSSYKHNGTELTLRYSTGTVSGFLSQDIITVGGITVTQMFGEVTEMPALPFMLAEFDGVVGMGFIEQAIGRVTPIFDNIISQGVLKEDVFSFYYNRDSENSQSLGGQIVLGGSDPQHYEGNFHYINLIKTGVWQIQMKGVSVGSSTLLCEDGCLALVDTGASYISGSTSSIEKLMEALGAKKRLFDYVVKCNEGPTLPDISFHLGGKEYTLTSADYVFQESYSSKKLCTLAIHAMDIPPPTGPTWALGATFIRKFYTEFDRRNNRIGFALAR
# Assay: plasma renin assay (inhibition of human renin; angiotensin I generated, measured by radioimmunoassay)
# Format: biochemical
# Conditions: human plasma pool, pH 6.0, 2 h incubation at 37°
# Experimental: The assay is performed as follows: The test compound (i.e. the inhibitor) is dissolved in dimethylsulfoxide (1 mM stock solution) and diluted with an aqueous buffer solution of 270 mM 2-(N-morpholino)ethanesulfonic acid and 1% human serum albumin (pH 5.85, also containing dimercaprol and 8-hydroxyquinoline sulfate in accordance with the instructions of the RIA kit noted below) to give an assay mixture in which the final dimethylsulfoxide content is 1% (v/v).
# A human plasma pool is used as the source of both the substrate (angiotensinogen) and the enzyme (renin). The reaction is initiated by the addition of 50 μL of human plasma pool to 50 μL of various concentrations of inhibitor in the 1% dimethylsulfoxide assay buffer. The plasma renin activity is measured by the amount of angiotensin I generated at pH 6.0 following a 2 h incubation at 37°.
# Quantitation of angiotensin I is performed by radioimmunoassay (RIA kit from New England Nuclear-Dupont, Mississauga, ON, Canada). The enzymatic activity of renin is expressed in ng of angiotensin I generated (/mL/2 h). The extent of inhibition of the reaction is determined from the amount of angiotensin I generated in reference to a control prepared without inhibitor. Nonlinear regression analysis is used to calculate the IC50 values, i.e. the molar concentration of the test compound required to cause a 50% inhibition of the enzyme activity.
row,SMILES,IC50 [nM]
1,"CC(C)C[C@H](O)[C@H](O)[C@H](CC1CCCCC1)NC(=O)[C@@H](CC(=O)N(CC1CCCCC1)CC(C)(C)O)Cc1cscn1 [Compound 36, N^4-(cyclohexylmethyl)-N^4-(2-hydroxy-2-methylpropyl)-N^1-[1(S)-(cyclohexylmethyl)-2(R),3(S)-dihydroxy-5-methylhexyl]-2(R)-(4-thiazolylmethyl)butanediamide]",7.1
2,"CC(C)C[C@H](O)[C@H](O)[C@H](CC1CCCCC1)NC(=O)[C@@H](CC(=O)N(CCO)CC1(O)CCCCC1)Cc1cscn1 [Compound 37, N^4-[(1-hydroxycyclohexyl)methyl]-N^4-(2-hydroxyethyl)-N^1-[1(S)-(cyclohexylmethyl)-2(R),3(S)-dihydroxy-5-methylhexyl]-2(R)-(4-thiazolylmethyl)butanediamide]",16
3,"CN(C)C(=O)CN(CC1(O)CCCCC1)C(=O)C[C@@H](CC1CC1)C(=O)N[C@@H](CC1CCCCC1)[C@@H](O)[C@@H]1CC(C)(C)N(C)C1=O [Compound 38, N^4-[(1-hydroxycyclohexyl)methyl]-N^4-[2-(dimethylamino)-2-oxoethyl]-N^1-[1(S)-(cyclohexylmethyl)-2(S)-hydroxy-2-(1,5,5-trimethyl-2-oxopyrrolidin-3(S)-yl)ethyl]-2(R)-(cyclopropylmethyl)butanediamide]",15
4,"CC(C)C[C@H](O)[C@H](O)[C@H](CC1CCCCC1)NC(=O)[C@@H](CC(=O)N(CC1CCCCC1)CC(C)(C)O)Cc1csc(N)n1 [Compound 41, N^4-(cyclohexylmethyl)-N^4-(2-hydroxy-2-methylpropyl)-N^1-[1(S)-(cyclohexylmethyl)-2(R),3(S)-dihydroxy-5-methylhexyl]-2(R)-[(2-amino-4-thiazolyl)methyl]butanediamide]",9
5,"CC(C)C[C@H](O)[C@H](O)[C@H](CC1CCCCC1)NC(=O)[C@@H](CC(=O)N(CC1CCCCC1)CC(C)(C)O)Cc1c[nH]cn1 [Compound 43, N^4-(cyclohexylmethyl)-N^4-(2-hydroxy-2-methylpropyl)-N^1-[1(S)-(cyclohexylmethyl)-2(R),3(S)-dihydroxy-5-methylhexyl]-2(R)-(1H-imidazol-4-ylmethyl)butanediamide]",14
6,CC(C)C[C@H](O)[C@H](O)[C@H](CC1CCCCC1)NC(=O)[C@@H](CC(=O)N[C@@H](CO)CC1CCCCC1)Cc1cscn1 [Compound 45],37
7,"CC(C)C[C@H](O)[C@H](O)[C@H](CC1CCCCC1)NC(=O)[C@@H](CC(=O)N(CC(=O)N(C)C)CC1(O)CCCCC1)Cc1csc(N)n1 [Compound 46, N^4-[2-(dimethylamino)-2-oxoethyl]-N^4-[(1-hydroxycyclohexyl)methyl]-N^1-[1(S)-(cyclohexylmethyl)-2(R),3(S)-dihydroxy-5-methylhexyl]-2(R)-[(2-amino-4-thiazolyl)methyl]butanediamide]",1.3
8,"CC(C)C[C@H](O)[C@H](O)[C@H](CC1CCCCC1)NC(=O)[C@@H](CC(=O)N(CC1CCCC1)CC(C)(C)O)Cc1csc(N)n1 [Compound 47, N^4-(cyclopentylmethyl)-N^4-(2-hydroxy-2-methylpropyl)-N^1-[1(S)-(cyclohexylmethyl)-2(R),3(S)-dihydroxy-5-methylhexyl]-2(R)-[(2-amino-4-thiazolyl)methyl]butanediamide]",7
9,"CC(C)C[C@H](O)[C@H](O)[C@H](CC1CCCCC1)NC(=O)[C@@H](CC(=O)N(CC1CCCCCC1)CC(C)(C)O)Cc1csc(N)n1 [Compound 48, N^4-(cycloheptylmethyl)-N^4-(2-hydroxy-2-methylpropyl)-N^1-[1(S)-(cyclohexylmethyl)-2(R),3(S)-dihydroxy-5-methylhexyl]-2(R)-[(2-amino-4-thiazolyl)methyl]butanediamide]",5
